# pIC50: −log10 of the molar value.
# Tested on: IL-1β
# Assay: In vitro IL-1β inhibition in PMA-differentiated, LPS-primed, ATP-stimulated THP1 cells
# Format: cell-based
# Settings: Homo sapiens, THP-1; THP1 monocytes differentiated with PMA, primed with 500 ng/ml LPS 4 h, compound 30 min, 5 mM ATP 1 hr; IL-1b in supernatant; read-out: invitro IL-1β inhibitory activity (IC50)
# Description: THP1 monocytes were differentiated with PMA (100 ng/ml) and incubated at 37° C. for 20 hrs in presence of 5% CO2. 2×10^5 differentiated cells were plated per well of 96 well tissue culture plates. The cells were primed using 500 ng/ml Lipopolysaccharide and incubating for 4 h under the same condition. The cells were then treated with various concentrations of the compounds for 30 min followed by treatment with 5 mM ATP for 1 hr. The supernatants were collected and analyzed by IL-1b (Mabtech Cat #3415-1H-20) or TNF-a (Mabtech; Cat #3510-1H-20) detection kit. The data were analyzed using GraphPad Prism V7.0. Dose Response Curve (DRC) was constructed to determine the IC50 value by fitting percentage cell survival data to the GraphPad Prism using nonlinear regression analysis.
row,pIC50,Compound
1,7.37,"CC(C)NC/C=C/S(=O)(=O)NC(=O)Nc1c2c(cc3c1CCC3)CCC2 [Example 1, (E)-N-((1,2,3,5,6,7-hexahydro-s-indacen-4-yl)carbamoyl)-3-(isopropylamino)prop-1-ene-1-sulfonamide]"
2,7.70,"CC(C)N(C)C/C=C/S(=O)(=O)NC(=O)Nc1c2c(cc3c1CCC3)CCC2 [Example 5, (E)-N-((1,2,3,5,6,7-hexahydro-s-indacen-4-yl)carbamoyl)-3-(isopropyl(methyl)amino)prop-1-ene-1-sulfonamide]"
3,8.25,"CN(C)C(C)(C)/C=C/S(=O)(=O)NC(=O)Nc1c2c(cc3c1CCC3)CCC2 [Example 6, (E)-3-(dimethylamino)-N-((1,2,3,5,6,7-hexahydro-s-indacen-4-yl)carbamoyl)-3-methylbut-1-ene-1-sulfonamide]"
4,8.18,"O=C(Nc1c2c(cc3c1CCC3)CCC2)NS(=O)(=O)/C=C/CN1CCCC1 [Example 18, (E)-N-((1,2,3,5,6,7-hexahydro-s-indacen-4-yl)carbamoyl)-3-(pyrrolidin-1-yl)prop-1-ene-1-sulfonamide]"
5,8.00,"CCN(C)C(C)(C)/C=C/S(=O)(=O)NC(=O)Nc1c2c(cc3c1CCC3)CCC2 [Example 20, (E)-3-(ethyl(methyl)amino)-N-((1,2,3,5,6,7-hexahydro-s-indacen-4-yl)carbamoyl)-3-methylbut-1-ene-1-sulfonamide]"
6,8.22,"CN(C1CCC1)C(C)(C)/C=C/S(=O)(=O)NC(=O)Nc1c2c(cc3c1CCC3)CCC2 [Example 21, (E)-3-(cyclobutyl(methyl)amino)-N-((1,2,3,5,6,7-hexahydro-s-indacen-4-yl)carbamoyl)-3-methylbut-1-ene-1-sulfonamide]"
7,8.12,"CC(C)N(C)C(C)(C)/C=C/S(=O)(=O)NC(=O)Nc1c2c(cc3c1CCC3)CCC2 [Example 24, (E)-N-((1,2,3,5,6,7-hexahydro-s-indacen-4-yl)carbamoyl)-3-(isopropyl(methyl)amino)-3-methylbut-1-ene-1-sulfonamide]"
8,7.96,"CC(C)CN(C)C(C)(C)/C=C/S(=O)(=O)NC(=O)Nc1c2c(cc3c1CCC3)CCC2 [Example 35, (E)-N-((1,2,3,5,6,7-hexahydro-s-indacen-4-yl)carbamoyl)-3-(isobutyl(methyl)amino)-3-methylbut-1-ene-1-sulfonamide]"
9,8.02,"CN(C)C/C=C/S(=O)(=O)NC(=O)Nc1c2c(cc3c1CCC3)CC=C2 [Example 36, (E)-3-(dimethylamino)-N-((1,2,3,7-tetrahydro-s-indacen-4-yl)carbamoyl)prop-1-ene-1-sulfonamide]"
10,7.90,"CC(C)(/C=C/S(=O)(=O)NC(=O)Nc1c2c(cc3c1CCC3)CCC2)N1CCCC1 [Example 42, (E)-N-((1,2,3,5,6,7-hexahydro-s-indacen-4-yl)carbamoyl)-3-methyl-3-(pyrrolidin-1-yl)but-1-ene-1-sulfonamide]"
11,8.42,"CC(C)(/C=C/S(=O)(=NC#N)NC(=O)Nc1c2c(cc3c1CCC3)CCC2)NC(=O)OC(C)(C)C (stereo not drawn) [Example 47, tert-butyl (E)-(4-(N′-cyano-N-((1,2,3,5,6,7-hexahydro-s-indacen-4-yl)carbamoyl)sulfamidimidoyl)-2-methylbut-3-en-2-yl)carbamate]"
12,8.19,"CN(C)C(C)(C)/C=C/S(=O)(=NC#N)NC(=O)Nc1c2c(cc3c1CCC3)CCC2 (stereo not drawn) [Example 49, (E)-N′-cyano-3-(dimethylamino)-N-((1,2,3,5,6,7-hexahydro-s-indacen-4-yl)carbamoyl)-3-methylbut-1-ene-1-sulfonimidamide]"

# Reference: patent publication US12599616B2, “Subtituted sulfonylurea and sulfoximineurea derivatives” (Zydus Lifesciences Limited, priority 2020, dated 2026)
